{
  "source": "patent US9326978B2",
  "about": "“A3 adenosine receptor allosteric modulators” (The United States of America, Represented by the Secretary, …, priority 2006, dated 2016)",
  "molecular_target": "human A3ARs (Homo sapiens (Human), UniProt P0DMS8)",
  "sequence (P0DMS8 whole entry)": "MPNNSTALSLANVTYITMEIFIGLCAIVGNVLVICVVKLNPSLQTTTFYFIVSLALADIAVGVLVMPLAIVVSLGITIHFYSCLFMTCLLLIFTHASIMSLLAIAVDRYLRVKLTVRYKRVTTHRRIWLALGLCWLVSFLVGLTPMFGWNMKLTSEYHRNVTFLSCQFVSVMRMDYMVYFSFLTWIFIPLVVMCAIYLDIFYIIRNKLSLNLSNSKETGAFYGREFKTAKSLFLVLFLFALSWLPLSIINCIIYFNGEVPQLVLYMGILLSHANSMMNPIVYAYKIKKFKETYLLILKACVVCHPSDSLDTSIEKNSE",
  "test": "Dissociation kinetics of [125I]I-AB-MECA from human A3ARs",
  "type": "binding",
  "protocol": "The dissociation of [^125I]I-AB-MECA was measured as follows. Membranes (20 μg) were preincubated at 25° C. with 0.5 nM [^125I]I-AB-MECA, in a total volume of 100 μl of Tris-HCl buffer (50 mM, pH 8.0) containing 10 mM MgCl2, and 1 mM EDTA for 60 min. The dissociation was then initiated by the addition of 3 μM Cl-IB-MECA with or without allosteric modulators. The time course of dissociation of total binding was measured by rapid filtration at appropriate time intervals. Nonspecific binding was measured after 60-min incubation in the presence of 3 μM Cl-IB-MECA. Further assay was as described above.",
  "data": [
    {"smiles": "Clc1ccc(Nc2nc3ccccc3c3[nH]c(C4CCCCC4)nc23)cc1Cl", "note": "[Compound 45, N-(3,4-Dichloro-phenyl)-2-cyclohexyl-1H-imidazo[4,5-c]quinolin-4-amine]", "values": [
      {"measurement": "activity at 10 µM", "setting": "0.5 h, % decrease of dissociation at 30 min, residual binding of [125I]AB-MECA after 30 min = 100%, Table 2, read-out: hA3AR Ag. Dissociation at 10 μM", "result": "173 ± 5", "unit": "%"},
      {"measurement": "hA3R Ag. Dissociation (%) at 10 μM", "setting": "% decrease of [125I]I-AB-MECA dissociation at 30 min (control = 100%), Table 3", "result": "173 ± 5", "unit": "%"}
    ]}
  ]
}
